Literature values in US10087176B2, “3,5-dichloro,4-(3,4-(cyclo-)alkoxyphenyl)--2-carbonyloxy)ethyl)pyridine derivatives as PDE-4 inhibitors” (Chiesi Farmaceutici S.p.A., priority 2014, dated 2018).

Legend:
[1] = tested on: lung inflammation and emphysema; details: smoking model of COPD in mice
[2] = tested on: neutrophils and CXCL8 in sputum; details: COPD patients, oral, given over 4 weeks
[3] = patients with severe disease, frequent exacerbations and mucus hypersecretion

Q: Which “effect on lung inflammation and emphysema” value [1] does the source give for `O=C(Nc1c(Cl)cncc1Cl)c1ccc(OC(F)F)c(OCC2CC2)c1` [roflumilast] here?
A: The value was “inhibits lung inflammation and emphysema”.

Q: What about the “effect on CXCL8 concentrations in sputum” value [2] of the same compound?
A: The value was “significantly reduces”.

Q: What about the “reduction of numbers of neutrophils in sputum” value [2] of the same compound?
A: The value was 36%.

Q: And the “improvement of FEV 1” value [3]?
A: Its value is “approximately 50 ml”.

Q: What about the reduction of exacerbation [3] of the same compound?
A: The reduction of exacerbation was “about 15%”.
